target: T1, human capsaicin receptor (Homo sapiens, UniProt Q8NER1); experiment: Calcium mobilization assay, determination of antagonist activity; type: cell-based; details: 50% decrease in fluorescence response of cells expressing human capsaicin receptor exposed to capsaicin; Example 6
T1 construct: transfected with the pBK-CMV expression construct encoding the full length human capsaicin receptor using standard methods; expressed in transfected cells
Source text: This Example illustrates the preparation of VR1-transfected cells and VR1-containing membrane preparations for use in capsaicin binding assays (Example 5).
A cDNA encoding full length human capsaicin receptor (SEQ ID NO:1, 2 or 3 of U.S. Pat. No. 6,482,611) was subcloned in the plasmid pBK-CMV (Stratagene, La Jolla, Calif.) for recombinant expression in mammalian cells.
Human embryonic kidney (HEK293) cells were transfected with the pBK-CMV expression construct encoding the full length human capsaicin receptor using standard methods. The transfected cells were selected for two weeks in media containing G418 (400 μg/ml) to obtain a pool of stably transfected cells. Independent clones were isolated from this pool by limiting dilution to obtain clonal stable cell lines for use in subsequent experiments.
This Example illustrates representative calcium mobilization assays for use in evaluating test compounds for agonist and antagonist activity.
(§1) Cells transfected with expression plasmids (as described in Example 4) and thereby expressing human capsaicin receptor are seeded and grown to 70-90% confluency in FALCON black-walled, clear-bottomed 96-well plates (#3904, BECTON-DICKINSON, Franklin Lakes, N.J.). The culture medium is emptied from the 96 well plates and FLUO-3 AM calcium sensitive dye (Molecular Probes, Eugene, Oreg.) is added to each well (dye solution: 1 mg FLUO-3 AM, 440 μL DMSO and 440 μl 20% pluronic acid in DMSO, diluted 1:250 in Krebs-Ringer HEPES (KRH) buffer (25 mM HEPES, 5 mM KCl, 0.96 mM NaH2PO4, 1 mM MgSO4, 2 mM CaCl2, 5 mM glucose, 1 mM probenecid, pH 7.4), 50 μl diluted solution per well). Plates are covered with aluminum foil and incubated at 37° C. for 1-2 hours in an environment containing 5% CO2. After the incubation, the dye is emptied from the plates, and the cells are washed once with KRH buffer, and resuspended in KRH buffer.
To measure the ability of a test compound to agonize or antagonize a calcium mobilization response in cells expressing capsaicin receptors to capsaicin or other vanilloid agonist, the EC50 of the agonist capsaicin is first determined. An additional 20 μl of KRH buffer and 1 μl DMSO is added to each well of cells, prepared as described above. 100 μl capsaicin in KRH buffer is automatically transferred by the FLIPR instrument to each well. Capsaicin-induced calcium mobilization is monitored using either FLUOROSKAN ASCENT (Labsystems; Franklin, Mass.) or FLIPR (fluorometric imaging plate reader system; Molecular Devices, Sunnyvale, Calif.) instruments. Data obtained between 30 and 60 seconds after agonist application are used to generate an 8-point concentration response curve, with final capsaicin concentrations of 1 nM to 3 μM. […] software (Synergy Software, Reading, Pa.) is used to fit the data to the equation: y=a*(1/(1+(b/x)^c)) to determine the 50% excitatory concentration (EC50) for the response. In this equation, y is the maximum fluorescence signal, x is the concentration of the agonist or antagonist (in this case, capsaicin), a is the Emax, b corresponds to the EC50 value and c is the Hill coefficient. Determination of Agonist Activity
Test compounds are dissolved in DMSO, diluted in 20 μl KRH buffer so that the final concentration of test compounds in the assay well is between 1 μM and 5 μM, and added to cells prepared as described above. The 96 well plates containing prepared cells and test compounds are incubated in the dark, at room temperature for 0.5 to 6 hours. It is important that the incubation not continue beyond 6 hours. Just prior to determining the fluorescence response, 100 μl capsaicin in KRH buffer at twice the EC50 concentration determined as described above is automatically added by the FLIPR instrument to each well of the 96 well plate for a final sample volume of 200 μl and a final capsaicin concentration equal to the EC50. The final concentration of test compounds in the assay wells is between 1 μM and 5 μM.

T1 sequence (Q8NER1 whole entry): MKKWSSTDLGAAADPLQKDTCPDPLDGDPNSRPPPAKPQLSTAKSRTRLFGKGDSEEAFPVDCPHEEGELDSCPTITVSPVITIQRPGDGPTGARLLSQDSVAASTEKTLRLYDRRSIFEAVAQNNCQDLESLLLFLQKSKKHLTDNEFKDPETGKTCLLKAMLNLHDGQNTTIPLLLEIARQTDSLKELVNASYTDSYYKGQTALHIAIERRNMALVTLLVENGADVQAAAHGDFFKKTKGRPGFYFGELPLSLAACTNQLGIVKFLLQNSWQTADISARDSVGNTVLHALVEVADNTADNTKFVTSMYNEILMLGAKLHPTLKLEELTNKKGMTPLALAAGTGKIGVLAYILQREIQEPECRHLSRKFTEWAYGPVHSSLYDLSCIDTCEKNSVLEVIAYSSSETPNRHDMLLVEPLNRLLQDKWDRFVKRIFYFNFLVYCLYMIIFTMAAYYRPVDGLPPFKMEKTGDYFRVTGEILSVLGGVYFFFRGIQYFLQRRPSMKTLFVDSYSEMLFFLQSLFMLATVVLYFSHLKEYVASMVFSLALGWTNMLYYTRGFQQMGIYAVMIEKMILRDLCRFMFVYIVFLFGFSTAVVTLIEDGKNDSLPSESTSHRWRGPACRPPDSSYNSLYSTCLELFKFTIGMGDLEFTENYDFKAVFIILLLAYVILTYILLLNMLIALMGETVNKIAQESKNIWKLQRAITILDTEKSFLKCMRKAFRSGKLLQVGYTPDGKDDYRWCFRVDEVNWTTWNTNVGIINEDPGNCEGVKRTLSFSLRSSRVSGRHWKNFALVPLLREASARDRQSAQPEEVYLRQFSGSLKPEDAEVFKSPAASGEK

Q: How did the IC50 turn out when `CC(C)(C)c1ccc(Nc2cc(-c3ccc(Cl)cc3)ncn2)cc1` [Compound 1, (4-tert-Butyl-phenyl)-[6-(4-chloro-phenyl)-pyrimidin-4-yl]-amine] was run?
A: Its IC50 is ≤ 1000 nM.

Q: `COc1ccccc1-c1cc(Nc2ccc(C(C)(C)C)cc2)ncn1` [Compound 2, (4-tert-Butyl-phenyl)-[6-(2-meth-oxy-phenyl)-pyrimidin-4-yl]-amine] was tested. Which IC50 did it give?
A: Its IC50 is ≤ 1000 nM.

Q: How did the IC50 turn out when `COc1cccc(-c2cc(Nc3ccc(C(C)(C)C)cc3)ncn2)c1` [Compound 3, (4-tert-Butyl-phenyl)-[6-(3-meth-oxy-phenyl)-pyrimidin-4-yl]-amine] was run?
A: Its IC50 is ≤ 1000 nM.

Q: How did the IC50 turn out when `COc1ccc(-c2cc(Nc3ccc(C(C)(C)C)cc3)ncn2)cc1` [Compound 4, (4-tert-Butyl-phenyl)-[6-(4-meth-oxy-phenyl)-pyrimidin-4-yl]-amine] was run?
A: The IC50 was ≤ 1000 nM.

Q: For `CC(C)(C)c1ccc(Nc2cc(-c3ccccc3C(F)(F)F)ncn2)cc1` [Compound 5, (4-tert-Butyl-phenyl)-[6-(2-tri-fluoromethyl-phenyl)-pyri-midin-4-yl]-amine], which IC50 is on record?
A: The IC50 was ≤ 1000 nM.

Q: `CC(C)(C)c1ccc(Nc2cc(-c3cccc(F)c3)ncn2)cc1` [Compound 6, (4-tert-Butyl-phenyl)-[6-(3-fluoro-phenyl)-pyrimidin-4-yl]-amine] was tested. Which IC50 did it give?
A: Its IC50 is ≤ 1000 nM.

Q: How did the IC50 turn out when `Cc1cccc(-c2cc(Nc3ccc(C(C)(C)C)cc3)ncn2)c1` [Compound 7, (4-tert-Butyl-phenyl)-(6-m-tolyl-pyrimidin-4-yl)-amine] was run?
A: The IC50 was ≤ 1000 nM.

Q: `CC(C)(C)c1ccc(Nc2cc(-c3cccc(OC(F)(F)F)c3)ncn2)cc1` [Compound 8, (4-tert-Butyl-phenyl)-[6-(3-tri-fluoromethoxy-phenyl)-pyri-midin-4-yl]-amine] was tested. Which IC50 did it give?
A: The IC50 was ≤ 1000 nM.

Q: Which IC50 does the source give for `CCOc1cccc(-c2cc(Nc3ccc(C(C)(C)C)cc3)ncn2)c1` [Compound 9, (4-tert-Butyl-phenyl)-[6-(3-eth-oxy-phenyl)-pyrimidin-4-yl]-amine] here?
A: Its IC50 is ≤ 1000 nM.

Q: How did the IC50 turn out when `COc1cccc(-c2ncnc(Nc3ccc(C(C)(C)C)cc3)c2C)c1` [Compound 10, (4-tert-Butyl-phenyl)-[6-(3-meth-oxy-phenyl)-5-methyl-pyrimidin-4-yl]-amine] was run?
A: The IC50 was ≤ 1000 nM.

Q: How did the IC50 turn out when `COc1cccc(-c2nc(COCC(C)C)nc(Nc3ccc(C(C)(C)C)cc3)n2)c1` [Compound 11, (4-tert-Butyl-phenyl)-[4-iso-butoxymethyl-6-(3-meth-oxy-phenyl)-[1,3,5]tri-azin-2-yl]-amine] was run?
A: Its IC50 is ≤ 1000 nM.

Q: Which IC50 does the source give for `CCc1c(Nc2ccc(C(C)(C)C)cc2)ncnc1-c1cccc(OC)c1` [Compound 12, (4-tert-Butyl-phenyl)-[5-ethyl-6-(3-meth-oxy-phenyl)-pyrimi-din-4-yl]-amine] here?
A: Its IC50 is ≤ 1000 nM.

Q: With `CCc1c(Nc2ccc(C(F)(F)F)cc2)ncnc1-c1cccc(OC)c1` [Compound 13, [5-Ethyl-6-(3-methoxy-phenyl)-pyrimidin-4-yl]-(4-tri-fluoromethyl-phenyl)-amine] as the molecule, how does the IC50 read?
A: Its IC50 is ≤ 1000 nM.

Q: `COc1cccc(-c2nc(C)nc(Nc3ccc(C(C)(C)C)cc3)c2C)c1` [Compound 14, (4-tert-Butyl-phenyl)-[6-(3-meth-oxy-phenyl)-2,5-di-methyl-pyrimidin-4-yl]-amine] was tested. Which IC50 did it give?
A: Its IC50 is ≤ 1000 nM.

Q: For `COc1cccc(-c2nc(C)nc(Nc3ccc(C(F)(F)F)cc3)c2C)c1` [Compound 15, [6-(3-Methoxy-phenyl)-2,5-di-methyl-pyrimidin-4-yl]-(4-tri-fluoromethyl-phenyl)-amine], which IC50 is on record?
A: Its IC50 is ≤ 1000 nM.

Q: For `COc1cncc(-c2ncnc(Nc3ccc(C(C)(C)C)cc3)c2C)c1` [Compound 16, (4-tert-Butyl-phenyl)-[6-(5-meth-oxy-pyridin-3-yl)-5-meth-yl-pyrimidin-4-yl]-amine], which IC50 is on record?
A: The IC50 was ≤ 1000 nM.

Q: Which IC50 does the source give for `COc1cccc(-c2ncnc(Nc3ccc(C(C)(C)C)cc3)c2N)c1` [Compound 17, N^4-(4-tert-Butyl-phenyl)-6-(3-meth-oxy-phenyl)-pyrimidine-4,5-di-amine] here?
A: The IC50 was ≤ 1000 nM.

Q: Which IC50 does the source give for `COc1cccc(-c2nc(N3CCOCC3)nc(Nc3ccc(C(F)(F)F)cc3)c2C)c1` [Compound 18, [6-(3-Methoxy-phenyl)-5-meth-yl-2-morpholin-4-yl-pyrimidin-4-yl]-(4-tri-fluoromethyl-phenyl)-amine] here?
A: Its IC50 is ≤ 1000 nM.

Q: For `COc1cccc(-c2nc(N3CCOCC3)nc(Nc3ccc(C(C)(C)C)cc3)c2C)c1` [Compound 19, (4-tert-Butyl-phenyl)-[6-(3-meth-oxy-phenyl)-5-methyl-2-mor-pholin-4-yl-pyrimidin-4-yl]-amine], which IC50 is on record?
A: The IC50 was ≤ 1000 nM.

Q: Which IC50 does the source give for `CC(C)(C)c1ccc(Nc2cc(-c3ccccc3)ncn2)cc1` [Compound 20, (4-tert-Butyl-phenyl)-(6-phenyl-pyrimidin-4-yl)-amine] here?
A: Its IC50 is ≤ 1000 nM.

Q: Which IC50 does the source give for `COc1ccc(-c2cc(Nc3ccc(C(C)(C)C)cc3)ncn2)cc1OC` [Compound 21, (4-tert-Butyl-phenyl)-[6-(3,4-di-methoxy-phenyl)-pyrimidin-4-yl]-amine] here?
A: Its IC50 is ≤ 1000 nM.

Q: For `COc1cccc(-c2ncnc(Nc3ccc(C(F)(F)F)cc3)c2N)c1` [Compound 23, 6-(3-Methoxy-phenyl)-N^4-(4-tri-fluoromethyl-phenyl)-pyrimi-dine-4,5-diamine], which IC50 is on record?
A: Its IC50 is ≤ 1000 nM.

Q: Which IC50 does the source give for `COc1cccc(-c2ncnc(Nc3ccc(C4CCCCC4)cc3)c2N)c1` [Compound 24, N^4-(4-Cyclohexyl-phenyl)-6-(3-meth-oxy-phenyl)-pyrimi-dine-4,5-diamine] here?
A: Its IC50 is ≤ 1000 nM.

target: T1, human capsaicin receptor; experiment: Calcium mobilization assay, agonist response; type: cell-based; details: capsaicin positive control, calcium mobilization in cells expressing human capsaicin receptor; read-out: approximate EC90 concentration
Experimental: as §1, with “Plates are covered with aluminum foil and incubated at 37° C. for 1-2 hours in an environment containing 5% CO2. After the incubation, the dye is emptied from the plates, and the cells are washed once with KRH buffer, and resuspended in KRH buffer.” left out
To measure the ability of a test compound to agonize or antagonize a calcium mobilization response in cells expressing capsaicin receptors to capsaicin or other vanilloid agonist, the EC50 of the agonist capsaicin is first determined. […] Capsaicin-induced calcium mobilization is monitored using either FLUOROSKAN ASCENT (Labsystems; Franklin, Mass.) or FLIPR (fluorometric imaging plate reader system; Molecular Devices, Sunnyvale, Calif.) instruments. […] In this equation, y is the maximum fluorescence signal, x is the concentration of the agonist or antagonist (in this case, capsaicin), a is the Emax, b corresponds to the EC50 value and c is the Hill coefficient. […]

Q: `COc1cc(CNC(=O)CCCC/C=C/C(C)C)ccc1O` [capsaicin] was tested. Which EC90 did it give?
A: The EC90 was ~100 nM.
